Earlier results in publication PMC7211195 (Investigational New Drugs, 2019).
Like-named read-outs stand apart in the source and are kept apart here.

Key:
[1] = design: method as in PMID 19276246; details: cited from earlier work; for increase in concentration in the brain: abcb1a/1b;abcg2(−/−) mice
[2] = in rats, cited from earlier work
[3] = cited from earlier work
[4] = design: method as in PMID 24113148; details: cited from earlier work

For Cc1nc(Nc2ncc(C(=O)Nc3c(C)cccc3Cl)s2)cc(N2CCN(CCO)CC2)n1 [dasatinib], the “brain-to-plasma ratio increase with elacridar” value ([1]; WT mice) is given as 4.4 times, the “increase in concentration in the brain” value ([1]; intraperitoneal administration) is given as 22.7 times and the “increase in concentration in the brain” value ([1]; oral administration) is given as 13.2 times.

For COc1cc2c(cc1OC)CN(CCc1ccc(NC(=O)c3cccc4c(=O)c5cccc(OC)c5[nH]c34)cc1)CC2 [Elacridar, 9,10-dihydro-5-methoxy-9-oxo-N-[4-[2-(1,2,3,4-tetrahydro-6,7-dimethoxy-2-isoquinolinyl)ethyl]phenyl]-4-acridine-carboxamide], the “bound to plasma proteins” value ([2]; ref 16) is listed as 98.1 ± 1.7% and the “bound to plasma proteins” value ([2]; ref 30) is listed as 99.0 ± 0.6%.

In the case of C[C@@H](Oc1cc(-c2cnn(C3CCNCC3)c2)cnc1N)c1c(Cl)ccc(F)c1Cl [crizotinib], the “brain accumulation after 24 h, times greater” value ([3]; 5 mg/kg b.w., knockout vs WT mice) is listed as “approximately 40 times”, the “higher BP exposure than WT mice” value ([3]; abcb1a/1b(−/−) and abcb1a/1b;abcg2(−/−) mice, 5 mg/kg b.w.) is listed as “approximately 2 times” and the “brain accumulation, times greater than in WT mice” value ([3]; abcb1a/1b(−/−) mice, dose increased ten-fold) is listed as “approximately 70 times”.

For CCN(CC)CCNC(=O)c1c(C)[nH]c(/C=C2\C(=O)Nc3ccc(F)cc32)c1C [sunitinib], the DTIBT ([4]; bcrp1(−/−) mice) is given as 2.1, the DTIBT ([4]; mdr1a/b(−/−) mice) is given as 3.9 and the DTIBT ([4]; mice with both knockout genes) is given as 48.9.
